Data published in US20190374506A1, “COMPOSITIONS AND METHODS FOR TREATING CANCER” (BETH ISREAL DEACONESS MEDICAL CENTER, priority 2016, published 2019).

Experiments:
[1] = system: DU145 cells with PTEN depletion; assay: Growth curves, MTT assay, DU145 cells with stable PTEN shRNA knockdown; assay type: cell-based, human; settings: two independent PTEN shRNAs, various doses of I3C for 5 Days
Excerpt: (§1) FIG. 11D provides growth curves of DU145 cells, stably expressing vector control or two independent shRNAs, treated with various doses of I3C for 5 Days, and then assayed with colorimetric MTT assay (three experiments). Whether targeting WWP1/NEDD4-1, thereby enhancing PTEN dimerization and function, could offer a unique opportunity to treat MYC-driven cancers was investigated. […] As there is no small pharmacological inhibitor currently available to suppress/inhibit WWP1 activity, Indole-3-Carbinol (I3C), a potential WWP1 inhibitor, which suppresses the WWP1 activity through binding to its HECT domain, was used. First, to assess the on-target effects of I3C towards WWP1, Wwp1^−/− MEFs were used. […] Additionally, two independent PTEN stably knocked-down cells were generated.

LNCaP cells (PTEN-null) = assay: Cell growth, LNCaP cells; assay type: cell-based, human
Excerpt: as §1, with “Whether” for “FIG. 11D provides growth curves of DU145 cells, stably expressing vector control or two independent shRNAs, treated with various doses of I3C for 5 Days, and then assayed with colorimetric MTT assay (three experiments). Whether”

[2] = system: PTEN subcellular localization in DU145 cells; assay: Confocal immunofluorescence of PTEN subcellular localization in DU145 cells; assay type: cell-based, human; settings: 20 μM I3C for 4 Days
Protocol: FIG. 10D provides a panel of micrographs showing the effects of I3C on PTEN subcellular localization in DU145 cells. DU145 cells treated with 20 μM I3C for 4 Days. Confocal images of DU145 cells treated with/without I3C were stained with DAPI and the indicated antibodies. Bar, 20 μm. Whether targeting WWP1/NEDD4-1, thereby enhancing PTEN dimerization and function, could offer a unique opportunity to treat MYC-driven cancers was investigated. […] As there is no small pharmacological inhibitor currently available to suppress/inhibit WWP1 activity, Indole-3-Carbinol (I3C), a potential WWP1 inhibitor, which suppresses the WWP1 activity through binding to its HECT domain, was used. First, to assess the on-target effects of I3C towards WWP1, Wwp1^-/- MEFs were used. […] Additionally, two independent PTEN stably knocked-down cells were generated. […] PC3 and DU145 cells stably expressing the indicated constructs were plated on coverslip. The following day, cells were washed with ice-cold PBS, fixed in 4% paraformaldehyde, permeabilized with 0.02% Triton X-100, and then blocked with PBS supplemented with 20% goat serum. Cells were incubated with anti-PTEN antibody (6H2.1, 1:100) from Cascade Bioscience, diluted in PBS containing 10% goat serum overnight and then with Alexa488-conjugated secondary antibody together with 1 μg/ml of DAPI for 1 hour. Images were acquired with a […] […]

Hi-Myc mouse prostates = assay: Preclinical study of I3C in Hi-Myc mice (prostate cancer); assay type: in vivo
Protocol: FIGS. 12A and 12B show hematoxylin and eosin (H&E) staining of mouse prostate and gross anatomy of representative Hi-Myc urogenital tract. Quantification of percentage of normal epithelium in Hi-Myc mice treated with vehicle or I3C at 6 months as shown in (A) (right). The mice at 5 months of age were treated I.P. with I3C (20 mg/kg), three times a week for 1 month starting on day zero. (n=4 per genotype) scale bar, […].
FIG. 12C provides a Western blot analysis of dorsal lateral prostate (DLP) lysates from Hi-Myc mice as in (A).
The boxed areas are enlarged three fold to show the subcellular localization of PTEN on the right. Arrow indicates the PTEN plasma membrane localization. Bar, 50 μm.
To examine the functional relevance of the WWP1/NEDD4-1/PTEN crosstalk in vivo, preclinical studies with I3C in Hi-Myc mice were performed. The expression of Hi-Myc in mouse prostate results in complete penetrance of prostatic intraepithelial neoplasia (PIN) and progresses into invasive adenocarcinoma within 5 to 12 months of age. To this end, cohorts of Hi-Myc mice at 5 months of age were treated with either the vehicle or I3C for one month.
The Beth Israel Deaconess Medical Center IACUC Committee on Animal Research approved all animal experiments. The transgenic mice used in these studies (Hi-Myc-mice), in which the prostate specific expression of human c-Myc is driven by the rat probasin promoter with two androgen response elements, were obtained from the Mouse Repository of National Cancer Institute. 9 mice per genotype were randomly chosen and used to examine the tumour at the indicated age. Wwp1−/−mice and its paired Wwp1+/+ mice (on a C57/BL6 background) were obtained from Dr. L. Matesic (University of South Carolina, Columbia, SC, USA) (Shu et al., 2013). The pathologist determined the histological grade blindly.
The mice were treated I.P. with I3C dissolved in 5% DMSO (20 mg/kg), three times a week for […] starting on day zero. I.P. administration allows I3C to achieve maximal systemic exposure.

[3] = system: DU145 cells stably expressing MYC or vector control; assay: Growth curves, MTT assay, DU145 cells stably expressing MYC or vector control; assay type: cell-based, human
[4] = literature statement; cited from earlier work
[5] = Hi-Myc mice, I3C 20 mg/kg I.P., western blot

OCc1c[nH]c2ccccc12 [I3C, indole-3-carbinol]
sensitivity of cells with PTEN depletion compared to control cells [1]: exhibited resistance | cell growth (LNCaP cells (PTEN-null)): only modestly suppressed cell growth | PTEN plasma membrane localization [2]: induced its plasma membrane accumulation | tumor size, DLP and AP (Hi-Myc mouse prostates; Hi-Myc mice 5 months of age, I3C 20 mg/kg I.P. three times a week for 1 month, dorsal lateral and anterior prostate): significantly reduced tumor size | tumor size, VP (Hi-Myc mouse prostates; Hi-Myc mice, I3C 20 mg/kg I.P. three times a week for 1 month, ventral prostate): less prominently | PTEN plasma membrane localization in prostate epithelial cells (IHC, DLP tissue) (Hi-Myc mouse prostates; Hi-Myc mice, I3C 20 mg/kg I.P., compared to vehicle): induced intense PTEN plasma membrane accumulation | histology of APs (Hi-Myc mouse prostates; Hi-Myc mice, I3C 20 mg/kg I.P., anterior prostate, H&E): completely disease-free | histology of DLPs: penetrance of invasive carcinoma (Hi-Myc mouse prostates; Hi-Myc mice, I3C 20 mg/kg I.P., dorsal lateral prostate, H&E): significantly lower penetrance | AKT activation in prostate lysates, AP and DLP (Hi-Myc mouse prostates; [5]): robustly inhibited AKT activation | PTEN protein level in prostate lysates (Hi-Myc mouse prostates; [5]): without affecting PTEN protein level | cell growth upon overexpression of MYC ([3]; MYC-overexpressing DU145 cells, same low dose of I3C): became sensitized | cell growth of control cells ([3]; vector control DU145 cells, low dose of I3C): little effect on the cell growth | toxicity [4]: negligible toxicity
